Assay results published in patent publication US20210094955A1, “SALT AND CRYSTAL OF TRIAZOLOPYRAZINE DERIVATIVE” (priority 2017, published 2021).
Converted amounts (≈) assume the structure as drawn.

Legend:
[1] = Solubility test, Test Method 1 (sample approx. 150 μg/mL, shaken 10 minutes at room temperature, filtrate quantified by HPLC); assay type: physicochemical; details: approx. 150 μg/mL added, in terms of free form
Experimental: Test Method of Free Form, Hydrochloride, Hydrobromide, Sulfate, Methanesulfonate, and Benzenesulfonate […] In order to uniformly disperse the sample in the dissolving solution, the sample was irradiated with ultrasonic waves in a water tank for a short time, and then vigorously shaken at room temperature for 10 minutes using a shaker SA-31 manufactured by Yamato Scientific Co., Ltd. The solution after shaken was filtered with a filter, and a concentrations of the compound in filtrate was quantified by HPLC. The following was used as the dissolving solution. […] JP2 (Japanese Pharmacopoeia 2nd Fluid for disintegration test): manufactured by Nacalai Tesque Inc. JP2+TC: Add sodium taurocholate to Japanese Pharmacopoeia 2nd Fluid for disintegration test to obtain a concentration of 15 mM. FaSSIF (artificial intestinal fluid (fasted state)): […] FeSSIF (artificial intestinal fluid (fed state)): […] Measurement conditions of free form, hydrochloride, hydrobromide, sulfate, methanesulfonate, and benzenesulfonate) Equipment: LC-1260 manufactured by Agilent Technologies Mobile phase: A: 0.01 M aqueous solution of ammonium acetate, B: 0.01 M methanol solution of ammonium acetate Flow rate: 0.3 mL/min Column: Develosil Combi-RP-5 5 μm (2.0 mm×50 mm) Column temperature: 40° C. […] Ex indicates Example Number to be described later.

[2] = Solubility test, Test Method 2 (sample approx. 300 μg/mL, shaken 10 minutes at room temperature, filtrate quantified by HPLC); assay type: physicochemical; details: approx. 300 μg/mL added, in terms of free form
Experimental: JP1 (Japanese Pharmacopoeia 1st Fluid for disintegration test): manufactured by Nacalai Tesque Inc.
JP2 (Japanese Pharmacopoeia 2nd Fluid for disintegration test): manufactured by Nacalai Tesque Inc.
JP2+TC: Add sodium taurocholate to Japanese Pharmacopoeia 2nd Fluid for disintegration test to obtain a concentration of 15 mM.
FaSSIF (artificial intestinal fluid (fasted state)): To 1 L of water, 3 mmol of sodium taurocholate, 0.75 mmol of lecithin, 3.9 g of potassium dihydrogen phosphate, and 7.7 g of potassium chloride are added, and a pH thereof is adjusted to approximately 6.5 using sodium hydroxide.
FeSSIF (artificial intestinal fluid (fed state)): To 1 L of water, 15 mmol of sodium taurocholate, 3.75 mmol of lecithin, 8.65 g of acetic acid, and 15.2 g of potassium chloride are added, and a pH is adjusted to approximately 5.0 using sodium hydroxide.
Test Method 2: Test Method for p-Toluenesulfonate and 1-Hydroxy-2-Naphthoate
Into a 10 mL centrifuge tube, 1 to 1.3 mg of a sample was weighed, and each dissolving solution (see below) was added thereto to be approximately 300 μg/mL. In order to uniformly disperse the sample in the dissolving solution, the sample was irradiated with ultrasonic waves in a water tank for a short time, and then vigorously shaken at room temperature for 10 minutes using a shaker SA-31 manufactured by Yamato Scientific Co., Ltd. The solution after shaken was filtered with a filter, and a concentration of the compound in filtrate was quantified by HPLC. The same dissolving solution as in Test Method 1 was used.
(Measurement condition 2 using HPLC: Measurement conditions of p-toluenesulfonate and 1-hydroxy-2-naphthoate)
Equipment: LC-1260 manufactured by Agilent Technologies
Mobile phase: A: 0.1% aqueous perchloric acid, B: methanol
Column: YMC-Triart C18 S-3 μm (2.0 mm×50 mm)
Column temperature: 40° C.
Detection wavelength: 254 nm
Ex indicates Example Number to be described later.

[3] = pH 1.2, simulated gastric fluid, thermodynamic from solid, JP1 (Japanese Pharmacopoeia 1st Fluid for disintegration test), 10 minutes shaking, read-out: Solubility JP1
[4] = pH 5, thermodynamic from solid, FeSSIF (artificial intestinal fluid, fed state), pH approx. 5.0, 10 minutes shaking, read-out: Solubility FeSSIF
[5] = pH 6.5, thermodynamic from solid, FaSSIF (artificial intestinal fluid, fasted state), pH approx. 6.5, 10 minutes shaking, read-out: Solubility FaSSIF
[6] = pH 6.8, aqueous buffer, thermodynamic from solid, JP2 (Japanese Pharmacopoeia 2nd Fluid for disintegration test), 10 minutes shaking, read-out: Solubility JP2
[7] = pH 6.8, fassgf or other biorelevant, thermodynamic from solid, JP2 with 15 mM sodium taurocholate, 10 minutes shaking, read-out: Solubility JP2 + TC

| SMILES | solubility at 10 min [1, 3] [µg/mL] | solubility at 10 min [1, 4] [µg/mL] | solubility at 10 min [1, 5] [µg/mL] | solubility at 10 min [1, 6] [µg/mL] | solubility at 10 min [1, 7] [µg/mL] | further results |
| --- | --- | --- | --- | --- | --- | --- |
| CS(=O)(=O)O.Cc1nsc(-c2nnc3n2CCN(C(=O)c2ccc(F)cc2)[C@@H]3C)n1 [Example 6, (4-fluorophenyl)[(8R)-8-methyl-3-(3-methyl-1,2,4-thiadiazol-5-yl)-5,6-dihydro[1,2,4]triazolo[4,3-a]pyrazin-7(8H)-yl]methanone methanesulfonate] | > 100 | > 100 | > 100 | > 100 | > 100 | – |
| Br.Cc1nsc(-c2nnc3n2CCN(C(=O)c2ccc(F)cc2)[C@@H]3C)n1 [Example 2, (4-fluorophenyl)[(8R)-8-methyl-3-(3-methyl-1,2,4-thiadiazol-5-yl)-5,6-dihydro[1,2,4]triazolo[4,3-a]pyrazin-7(8H)-yl]methanone hydrobromide] | > 100 | > 100 | > 100 | > 100 | > 100 | – |
| Cc1ccc(S(=O)(=O)O)cc1.Cc1nsc(-c2nnc3n2CCN(C(=O)c2ccc(F)cc2)[C@@H]3C)n1 [Example 5, (4-fluorophenyl)[(8R)-8-methyl-3-(3-methyl-1,2,4-thiadiazol-5-yl)-5,6-dihydro[1,2,4]triazolo[4,3-a]pyrazin-7(8H)-yl]methanone p-toluenesulfonate] | – | – | – | – | – | solubility at 10 min [2, 3]: > 100 µg/mL; solubility at 10 min [2, 4]: > 100 µg/mL; solubility at 10 min [2, 5]: > 100 µg/mL; solubility at 10 min ([2]; pH 6.8, fassgf or other biorelevant, thermodynamic from solid, JP2 (Japanese Pharmacopoeia 2nd Fluid for disintegration test), 10 minutes shaking, read-out: Solubility JP2): > 100 µg/mL; solubility at 10 min [2, 7]: > 100 µg/mL |
| Cc1nsc(-c2nnc3n2CCN(C(=O)c2ccc(F)cc2)[C@@H]3C)n1.O=C(O)c1ccc2ccccc2c1O [Example 8, (4-fluorophenyl)[(8R)-8-methyl-3-(3-methyl-1,2,4-thiadiazol-5-yl)-5,6-dihydro[1,2,4]triazolo[4,3-a]pyrazin-7(8H)-yl]methanone 1-hydroxy-2-naphthoate] | – | – | – | – | – | Solubility FaSSIF ([2]; FaSSIF (artificial intestinal fluid, fasted state), pH approx. 6.5, 10 minutes shaking): >100 µg/mL; Solubility FeSSIF ([2]; FeSSIF (artificial intestinal fluid, fed state), pH approx. 5.0, 10 minutes shaking): >100 µg/mL; Solubility JP1 ([2]; JP1 (Japanese Pharmacopoeia 1st Fluid for disintegration test), 10 minutes shaking): 58.9 µg/mL; Solubility JP2 ([2]; JP2 (Japanese Pharmacopoeia 2nd Fluid for disintegration test), 10 minutes shaking): >100 µg/mL; Solubility JP2 + TC ([2]; JP2 with 15 mM sodium taurocholate, 10 minutes shaking): >100 µg/mL |
| Cc1nsc(-c2nnc3n2CCN(C(=O)c2ccc(F)cc2)[C@@H]3C)n1.O=S(=O)(O)O [Example 3, (4-fluorophenyl)[(8R)-8-methyl-3-(3-methyl-1,2,4-thiadiazol-5-yl)-5,6-dihydro[1,2,4]triazolo[4,3-a]pyrazin-7(8H)-yl]methanone sulfate] | > 100 | > 100 | > 100 | > 100 | > 100 | – |
| Cc1nsc(-c2nnc3n2CCN(C(=O)c2ccc(F)cc2)[C@@H]3C)n1.O=S(=O)(O)c1ccccc1 [Example 7, (4-fluorophenyl)[(8R)-8-methyl-3-(3-methyl-1,2,4-thiadiazol-5-yl)-5,6-dihydro[1,2,4]triazolo[4,3-a]pyrazin-7(8H)-yl]methanone benzenesulfonate] | > 100 | > 100 | > 100 | > 100 | > 100 | – |
| Cc1nsc(-c2nnc3n2CCN(C(=O)c2ccc(F)cc2)[C@@H]3C)n1 [Compound A, (4-fluorophenyl)[(8R)-8-methyl-3-(3-methyl-1,2,4-thiadiazol-5-yl)-5,6-dihydro[1,2,4]triazolo[4,3-a]pyrazin-7(8H)-yl]methanone, reference compound] | 66.6 (≈ 186 µM) | 31.9 (≈ 89 µM) | 36.5 (≈ 102 µM) | 65.4 (≈ 182 µM) | 82.9 | – |
| Cc1nsc(-c2nnc3n2CCN(C(=O)c2ccc(F)cc2)[C@@H]3C)n1.Cl [Example 1, (4-fluorophenyl)[(8R)-8-methyl-3-(3-methyl-1,2,4-thiadiazol-5-yl)-5,6-dihydro[1,2,4]triazolo[4,3-a]pyrazin-7(8H)-yl]methanone hydrochloride] | > 100 | > 100 | > 100 | > 100 | > 100 | – |
